Results as given in patent publication US20220324865A1 (Bayer Aktiengesellschaft, priority 2018, published 2022).
Counter-ions that a name gives are not always drawn.

These molecules were tested against T1, human EP3 receptor (Homo sapiens, UniProt P43115) (assay: Cellular in vitro assay for determining EP3 receptor activity (human EP3 cell line, sulprostone-stimulated calcium luminescence)). Details: CHO cells expressing human EP3 and mitochondrial Clytin; antagonist mode, sulprostone at EC50; read-out: EP3 CHO mtCLY ANTAG IC50.
T1 construct: expressed in transfected cells; host or cells: CHO K1 (Chinese Hamster Ovary), stably co-transfected with Galpha16 and mitochondrial clytin
T1 sequence (P43115 1-390): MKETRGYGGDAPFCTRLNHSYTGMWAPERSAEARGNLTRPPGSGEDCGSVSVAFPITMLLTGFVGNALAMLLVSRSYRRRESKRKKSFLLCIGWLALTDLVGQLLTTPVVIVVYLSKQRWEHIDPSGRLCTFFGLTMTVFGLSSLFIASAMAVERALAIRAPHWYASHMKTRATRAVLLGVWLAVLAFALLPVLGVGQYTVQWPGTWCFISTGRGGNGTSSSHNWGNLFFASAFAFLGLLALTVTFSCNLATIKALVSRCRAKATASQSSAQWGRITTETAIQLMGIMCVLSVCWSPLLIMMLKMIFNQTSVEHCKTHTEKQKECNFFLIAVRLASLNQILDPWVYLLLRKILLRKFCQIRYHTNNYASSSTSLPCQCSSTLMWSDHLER
Format: cell-based
Method in brief: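 CHO K1 cells stably expressing human EP3 with Gα16 and mitochondrial Clytin, loaded overnight with coelenterazine. Compounds added 10 min before sulprostone at its EC50; antagonism read immediately as reduced calcium-driven luminescence, quadruplicate points.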
Work on Cc1ccc(-c2cn3nc(C(=O)NC(C)(C)c4ccc(F)cc4)cc3c(=O)[nH]2)cc1C [6-45] yielded an IC50 of 2.55 nM. For O=C(NC1(c2ccc(F)cc2)CN(C2CC2)C1)c1nn2cc(-c3ccc(Cl)c(F)c3)[nH]c(=O)c2c1C1CC1 [6-104], the IC50 was 1.25 nM. CC(C)C(NC(=O)c1nn2cc(-c3ccc4ccccc4c3)[nH]c(=O)c2c1C#N)c1ccc(F)cc1 (centres unmarked) [Example 3-59, 3-Cyano-N-[1-(4-fluorophenyl)-2-methylpropyl]-6-(2-naphthyl)-4-oxo-5H-pyrazolo[1,5-a]pyrazine-2-carboxamide] gave an IC50 of 1.25 nM. With CCn1nccc1C(C)NC(=O)c1nn2c(C)c(-c3ccc4ccccc4c3)[nH]c(=O)c2c1C (centres unmarked) [Example 3-12, N-[1-(1-Ethyl-1H-pyrazol-5-yl)ethyl]-3,7-dimethyl-6-(2-naphthyl)-4-oxo-4,5-dihydropyrazolo[1,5-a]pyrazine-2-carboxamide] the IC50 was 1.75 nM. Cc1cnn(C(CNC(=O)c2cc3c(=O)[nH]c(-c4ccc5ccccc5c4)cn3n2)C(C)C)c1 (centres unmarked) [Example 2-12, N-[3-Methyl-2-(4-methyl-1H-pyrazol-1-yl)butyl]-6-(2-naphthyl)-4-oxo-4,5-dihydropyrazolo[1,5-a]pyrazine-2-carboxamide] showed an IC50 of 4.65 nM. For CC[C@@H](C)NC(=O)c1cc2c(=O)[nH]c(-c3ccc(C)c(C4CC4)c3)cn2n1 [6-613], the IC50 was 3.67 nM. Molecule Cc1ccc(-c2cn3nc(C(=O)NCC(O)(C(F)(F)F)C(F)(F)F)c(C4CC4)c3c(=O)[nH]2)cc1C [6-434] has an IC50 of 1.95 nM. COc1ccc(C(C)NC(=O)c2nn3cc(-c4ccc5ccccc5c4)[nH]c(=O)c3c2C#N)cc1 (centres unmarked) [Example 3-51, 3-Cyano-N-[1-(4-methoxyphenyl)ethyl]-6-(2-naphthyl)-4-oxo-5H-pyrazolo[1,5-a]pyrazine-2-carboxamide] gave an IC50 of 1.85 nM. For C[C@H](NC(=O)c1cc2c(=O)[nH]c(-c3ccc4ccccc4c3)cn2n1)c1ccccc1 [Example 2-34, 6-(2-Naphthyl)-4-oxo-N-[(7S)-1-phenylethyl]-4,5-dihydropyrazolo[1,5-a]pyrazine-2-carboxamide], the IC50 was 1.9 nM. With CC(CN1CCOCC1)NC(=O)c1nn2cc(-c3ccc4ccccc4c3)[nH]c(=O)c2c1C(F)(F)F (single isomer, unassigned) [6-524] the IC50 was 7 nM. Work on O=C(NCC(O)C(F)(F)F)c1nn2cc(-c3ccc(Cl)c(Cl)c3)[nH]c(=O)c2c1C1CC1 (single isomer, unassigned) [6-416] yielded an IC50 of 2.8 nM. In the case of COCc1c(C(=O)NC2(c3ccc(F)cc3)CN(C)C2)nn2cc(-c3ccc4ccccc4c3)[nH]c(=O)c12 [Example 1-21, N-[3-(4-Fluorophenyl)-1-methylazetidin-3-yl]-3-(methoxymethyl)-6-(naphthalen-2-yl)-4-oxo-4,5-dihydropyrazolo[1,5-a]pyrazine-2-carboxamide], the IC50 is reported as 1.25 nM. With COc1ccc(C(NC(=O)c2nn3c(C)c(-c4ccc5ccccc5c4)[nH]c(=O)c3c2C)C2CC2)cc1 (centres unmarked) [Example 3-35, N-[Cyclopropyl(4-methoxyphenyl)methyl]-3,7-dimethyl-6-(2-naphthyl)-4-oxo-5H-pyrazolo[1,5-a]pyrazine-2-carboxamide] the IC50 was 5.05 nM. Cc1cccc2ncc(-c3cn4nc(C(=O)Nc5cnn(C)c5)c(C(C)C)c4c(=O)[nH]3)cc12 [Example 4-24, N-(1-Methyl-1H-pyrazol-4-yl)-6-(5-methylquinolin-3-yl)-4-oxo-3-(propan-2-yl)-4,5-dihydropyrazolo[1,5-a]pyrazine-2-carboxamide] was tested, and the IC50 was 1.15 nM. Cc1ccc(-c2cn3nc(C(=O)N[C@H](CCO)c4ccc(F)cc4)c(C(C)C)c3c(=O)[nH]2)cc1C [Example 1-92, 6-(3,4-Dimethylphenyl)-N-[(1R)-1-(4-fluorophenyl)-3-hydroxpropyl]-4-oxo-3-(propan-2-yl)-4,5-dihydropyrazolo[1,5-a]pyrazine-2-carboxamide] showed an IC50 of 0.625 nM. With O=C(N[C@H](CN1CCOCC1)c1ccccc1)c1cc2c(=O)[nH]c(-c3ccc4ccccc4c3)cn2n1 [Example 1-7, N-[(1S)-2-(Morpholin-4-yl)-1-phenylethyl]-6-(naphthalen-2-yl)-4-oxo-4,5-dihydropyrazolo[1,5-a]-pyrazine-2-carboxamide formic acid salt] the IC50 was 1.7 nM. Work on Cc1cc(-c2cn3nc(C(=O)NCC(C)(N)C(F)(F)F)c(C4CC4)c3c(=O)[nH]2)ccc1Cl (single isomer, unassigned) [6-321] yielded an IC50 of 1.7 nM. CC(C)[C@@H](C)NC(=O)c1nn2cc(-c3ccc4ccccc4c3)[nH]c(=O)c2c1C(F)(F)F [6-512] gave an IC50 of 0.95 nM. Cc1cccc2ncc(-c3cn4nc(C(=O)NC(C)c5ccc(S(N)(=O)=O)cc5)c(C(C)C)c4c(=O)[nH]3)cc12 (centres unmarked) [Example 4-53, 3-Isopropyl-6-(5-methyl-3-quinolyl)-4-oxo-N-[1-(4-sulfamoylphenyl)ethyl]-5H-pyrazolo[1,5-a]pyrazine-2-carboxamide] showed an IC50 of 1.1 nM. In the case of N#Cc1c(C(=O)NC2(c3ccc(Cl)cc3)CCC2)nn2cc(-c3ccc4ccccc4c3)[nH]c(=O)c12 [Example 3-62, N-[1-(4-Chlorophenyl)cyclobutyl]-3-cyano-6-(naphthalen-2-yl)-4-oxo-4,5-dihydropyrazolo[1,5-a]pyrazine-2-carboxamide], the IC50 is reported as 4 nM. Cc1ccc(-c2cn3nc(C(=O)NCC(O)C(F)(F)F)c(C4CC4)c3c(=O)[nH]2)cc1C (racemic) [6-435] showed an IC50 of 0.26 nM. Molecule O=C(N[C@H]1c2ccccc2C[C@@H]1O)c1cc2c(=O)[nH]c(-c3ccc4ccccc4c3)cn2n1 [6-73] has an IC50 of 8.3 nM. Molecule Cc1cc(-c2cn3nc(C(=O)NCC(O)C(F)(F)F)c(C4CC4)c3c(=O)[nH]2)ccc1Cl (single isomer, unassigned) [6-314] has an IC50 of 0.85 nM. In the case of Cc1nn(C)cc1CNC(=O)c1nn2c(C)c(-c3ccc4ccccc4c3)[nH]c(=O)c2c1C [Example 3-9, N-[(1,3-Dimethyl-1H-pyrazol-4-yl)methyl]-3,7-dimethyl-6-(naphthalen-2-yl)-4-oxo-4,5-dihydropyrazolo[1,5-a]pyrazine-2-carboxamide], the IC50 is reported as 1.95 nM. COC(=O)N1CC(NC(=O)c2cc3c(=O)[nH]c(-c4ccc5ccccc5c4)cn3n2)(c2ccc(F)cc2)C1 [Example 1-50, Methyl 3-(4-fluorophenyl)-3-({[6-(naphthalen-2-yl)-4-oxo-4,5-dihydropyrazolo[1,5-a]pyrazin-2-yl]-carbonyl}amino)azetidine-1-carboxylate] gave an IC50 of 3.53 nM. Cc1ccc(-c2cn3nc(C(=O)N[C@H](C)C(C)(C)C)c(C4CC4)c3c(=O)[nH]2)cc1Cl [6-281] was tested, and the IC50 was 2.05 nM. Cc1ccc(-c2cn3nc(C(=O)NCC(O)C(F)(F)F)c(C(F)(F)F)c3c(=O)[nH]2)cc1Cl (racemic) [6-158] showed an IC50 of 1.55 nM. Cc1ccc(-c2cn3nc(C(=O)NCC(O)C(F)(F)F)c(C4CC4)c3c(=O)[nH]2)cc1F (single isomer, unassigned; enantiomer1) [Example 1-160, 3-Cyclopropyl-6-(3-fluoro-4-methylphenyl)-4-oxo-N-(3,3,3-trifluoro-2-hydroxpropyl)-4,5-dihydropyrazolo[1,5-a]pyrazine-2-carboxamide (enantiomer1)] was tested, and the IC50 was 3.55 nM. C[C@@H](NC(=O)c1cc2c(=O)[nH]c(-c3ccc4ccccc4c3)cn2n1)c1ccc(C(F)(F)F)cc1 [Example 1-1, 6-(Naphthalen-2-yl)-4-oxo-N-{(1R)-1-[4-(trifluoromethyl)phenyl]ethyl}-4,5-dihydropyrazolo[1,5-a]-pyrazine-2-carboxamide] gave an IC50 of 1.6 nM. Cc1cc(-c2cn3nc(C(=O)N[C@@H](C)C4CC4)c(C4CCC4)c3c(=O)[nH]2)ccc1Cl [6-618] showed an IC50 of 1 nM. Work on Cc1cccc2ncc(-c3cn4nc(C(=O)NC(C)c5ccc(S(C)(=O)=O)cc5)c(C(C)C)c4c(=O)[nH]3)cc12 (centres unmarked) [Example 4-61, 3-Isopropyl-6-(5-methyl-3-quinolyl)-N-[1-(4-methylsulfonylphenyl)ethyl]-4-oxo-5H-pyrazolo[1,5-a]pyrazine-2-carboxamide] yielded an IC50 of 1.8 nM. Molecule C[C@@H](NC(=O)c1cc2c(=O)[nH]c(-c3ccc4c(c3)ncn4C)cn2n1)c1ccc(F)cc1 [6-660] has an IC50 of 3 nM. In the case of Cc1ccc(-c2cn3nc(C(=O)N[C@H](C)C4CC4)c(C(F)(F)F)c3c(=O)[nH]2)cc1C [6-120], the IC50 is reported as 0.78 nM. In the case of Cc1cccc2ncc(-c3cn4nc(C(=O)N[C@@H](c5ccc(F)cc5)C(C)(C)O)c(C(C)C)c4c(=O)[nH]3)cc12 [Example 1-89, N-[(1S)-1-(4-Fluorophenyl)-2-hydroxy-2-methylpropyl]-6-(5-methylquinolin-3-yl)-4-oxo-3-(propan-2-yl)-4,5-dihydropyrazolo[1,5-a]pyrazine-2-carboxamide], the IC50 is reported as 1.03 nM. With Cc1cc(-c2cn3nc(C(=O)NC(c4ccc(F)cc4)C4(O)CC4)c(C(F)(F)F)c3c(=O)[nH]2)ccc1Cl (single isomer, unassigned) [6-212] the IC50 was 8.15 nM. COc1ccc(C(C)NC(=O)c2cc3c(=O)[nH]c(-c4ccc5ccccc5c4)cn3n2)cn1 (centres unmarked) [Example 1-104, N-[1-(6-Methompyridin-3-yl)ethyl]-6-(2-naphthyl)-4-oxo-5H-pyrazolo[1,5-a]pyrazine-2-carboxamide] showed an IC50 of 2.26 nM. With Cc1c(C(=O)NCCOCC(F)(F)F)nn2c(C)c(-c3ccc4ccccc4c3)[nH]c(=O)c12 [Example 3-3, 3,7-Dimethyl-6-(naphthalen-2-yl)-4-oxo-N-[2-(2,2,2-trifluoroethoxy)ethyl]-4,5-dihydropyrazolo[1,5-a]pyrazine-2-carboxamide] the IC50 was 5.4 nM. With Cc1ccc(-c2cn3nc(C(=O)N[C@H](CCO)c4ccc(F)cc4)cc3c(=O)[nH]2)cc1Cl [6-122] the IC50 was 0.88 nM.
